Test results from publication PMC8559926, “Design, synthesis and biological evaluation of N-oxide derivatives with potent in vivo antileishmanial activity” (PLoS ONE, 2021).
“And” between values parts separate entries of the source, which are not always exact repeats. Identical values can stand only once. Like-named read-outs stand apart in the source and are kept apart here.

Legend:
[1] = system: L. infantum intracellular amastigotes; test: Anti-amastigote activity in infected murine peritoneal macrophages; assay type: cell-based; details: Leishmania infantum, Peritoneal macrophage, 24 h, read-out: EC50 - Effective Concentration that kills 50% of L. infantum amastigote forms
Method: (§1) The antileishmanial activity against L. infantum intracellular amastigotes, according to the following methodology. […] Were used infected macrophages as negative control and amphotericin B as the positive control.
(§2) After incubation, cells were fixed with methanol and Giemsa stained. The effective concentration to 50% amastigotes death (EC) was obtained by counting 100 macrophages in duplicate, in two independent experiments. The values were obtained by non-linear regression on Bioestat® software, and results were expressed in mean ± standard deviation.

[2] = target: T1, recombinant Leishmania cysteine protease LmCPB2.8ΔCTE (CPB) (Leishmania mexicana, UniProt P36400); test: Enzymatic inhibition of recombinant CPB (Z-FR-AMC substrate); assay type: biochemical
T1 construct: The ORF that codes for the Leishmania mexicana CPB, lacking the C terminal extension (CPB2.8ΔCTE); made in house; host or cells: Pichia pastoris X-33
T1 sequence (P36400 126-341, stated change not applied): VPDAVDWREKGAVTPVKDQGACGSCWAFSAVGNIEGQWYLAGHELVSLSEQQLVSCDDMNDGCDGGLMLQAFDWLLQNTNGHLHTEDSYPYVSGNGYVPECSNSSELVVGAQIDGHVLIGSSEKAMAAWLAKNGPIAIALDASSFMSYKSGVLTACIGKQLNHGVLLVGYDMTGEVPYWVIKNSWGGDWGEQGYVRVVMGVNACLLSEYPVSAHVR
Method: The concentration of the active recombinant CPB expressed in Pichia pastoris supernatant was determined by active site titration with N-(trans-Epoxysuccinyl)-L-leucine 4-guanidinobutylamide E-64 (CalBiochem) that was found 1 μM. The active enzyme represented about 80% of the total recombinant enzyme.
Compounds were dissolved in DMSO to a final concentration of 20 μM. The assays were performed in dark 96 well-plates, containing 200 μL of 100 mM sodium acetate buffer (pH 5.5), 200 mM NaCl, 0.01% Triton-X100, 2 nM enzyme, various concentrations of inhibitor, and 5 μM of the substrate Z-FR-AMC (Calbiochem). The final concentration of DMSO was 1% (v/v). The enzyme was pre-incubated at 30°C for 2 minutes before the inhibitor was added, waited 2 minutes and after this incubation, the reaction was started by the addition of the substrate, Z-FR-AMC. The fluorescence was monitored at 380 nm excitation and 460 nm emission filters for 2 minutes at 30°C in an Infinite 200 PRO microplate reader (Tecan, Männedorf, Switzerland). The residual activity was measured by the ratio between enzyme + substrate and enzyme + inhibitor + substrate. […] Results were expressed in mean ± standard deviation of two independent replicates using Bioestat Software.

[3] = Anti-amastigote activity in infected murine peritoneal macrophages; assay type: cell-based, L. infantum; details: Swiss, mouse; CC50 macrophages / EC50 L. infantum amastigotes; read-out: SI - Selective Index (CC50/EC50)
Method: as §1, §2

[4] = Quantification of nitrite by the Griess reaction (NO release); details: compounds at 10^-4 M, 5 mM of L-Cys (1:50), 1 h, 37°C
Method: The levels of nitrite resulting from the oxidation of NO in the aqueous medium were quantified through the Griess reaction after incubation with an excess of L-cysteine (1:50) according to previously published methods. The experiments were performed in triplicate and repeated three times on different days. […] The results were expressed as a percentage of nitrite (% NO2^−; mol/mol). Statistical analysis was carried out using ANOVA followed by Tukey’s Multiple Comparison Test at a significance level of p < 0.05.
The ability of all synthesized compounds (4a-x) and (14a-g) to release NO was evaluated by indirect determination of NO2^− production. The compounds at 10^−4 M were incubated for 1 h at 37°C in the presence of L-cysteine (1:50) and the produced NO2^− was determined through Griess reaction (Table 1).

| Structure (SMILES) | EC50 [1] [µM] | IC50 [2] [µM] | selectivity ratio at 24 h [3] | IC50 ([2]; read-out: IC50 - Inhibition of CPB, 2 nM enzyme, 5 μM Z-FR-AMC, pH 5.5, 30°C) [µM] | melting point [°C] | % NO2- (mol/mol) [4] |
| --- | --- | --- | --- | --- | --- | --- |
| Nc1ccccc1C(=O)N/N=C/c1ccc2no[n+]([O-])c2c1 [Compound 4q] | > 10 | 14 ± 2 |  |  |  |  |
| Nc1cccc(C(=O)N/N=C/c2ccc3no[n+]([O-])c3c2)c1 [Compound 4r] | 9.5 ± 0.6 | 3.4 ± 0.1 | 11 |  |  |  |
| Nc1ccc(C(=O)N/N=C/c2ccc3no[n+]([O-])c3c2)cc1 [Compound 4s] | > 10 | > 20 |  |  |  |  |
| O=C(N/N=C/c1ccc2no[n+]([O-])c2c1)c1ccccc1O [Compound 4t] | > 10 | 4.2 ± 0.2 |  |  |  |  |
| O=C(N/N=C/c1ccc2no[n+]([O-])c2c1)c1cccc(O)c1 [Compound 4u] | > 10 | 11.7 ± 0.5 |  |  |  |  |
| O=C(N/N=C/c1ccc2no[n+]([O-])c2c1)c1ccc(O)cc1 [Compound 4v] | > 10 | > 20 |  |  |  |  |
| CC(C)(C)c1ccc(C(=O)N/N=C/c2ccc3no[n+]([O-])c3c2)cc1 [Compound 4x] | > 10 |  |  | > 20 |  |  |
| NC(=O)N/N=C/c1ccc(O)cc1 [Compound 14a, (E)-2-(4-hydroxybenzylidene)hydrazine-1-carboxamide] | > 10 | 2 ± 0.1 |  |  | 224 to 226 |  |
| NC(=S)N/N=C/c1ccc(O)cc1 [Compound 14b, (E)-2-(4-hydroxybenzylidene)hydrazine-1-carbothioamide] |  | 11.7 ± 1 |  |  |  |  |
| O=C(N/N=C/c1ccc(O)cc1)c1ccccc1 [Compound 14c, (E)-N’-(4-hydroxybenzylidene)benzohydrazide] | > 10 | 2 ± 0.3 |  |  | 244 to 245 |  |
| O=C(N/N=C/c1ccc(O)cc1)c1ccc(O)cc1 [Compound 14d, (E)-4-hydroxy-N’-(4-hydroxybenzylidene)benzohydrazide] | > 10 | 2 ± 0.1 |  |  |  |  |
| Nc1ccc(C(=O)N/N=C/c2ccc(O)cc2)cc1 [Compound 14e, (E)-4-amino-N’-(4-hydroxybenzylidene)benzohydrazide] | > 10 | 1.2 ± 0.1 |  |  | 275 to 276 |  |
| O=C(N/N=C/c1ccc(O)cc1)c1ccc([N+](=O)[O-])cc1 [Compound 14f, (E)-N’-(4-hydroxybenzylidene)-4-nitrobenzohydrazide] | > 10 | 4 ± 0.1 |  |  | 266 to 268 |  |
| CC(C)(C)c1ccc(C(=O)N/N=C/c2ccc(O)cc2)cc1 [Compound 14g, (E)-4-(tert-butyl)-N’-(4-hydroxybenzylidene)benzohydrazide] | > 10 | 7.6 ± 2.1 |  |  |  |  |
| O=[N+]([O-])O[C@H]1CO[C@H]2[C@@H]1OC[C@H]2O[N+](=O)[O-] [DNS, isosorbide dinitrate, reference compound] |  |  |  |  |  | 10.5% and 10.5 ± 0.9 ^*^a % |
